In paper PMC6222747, “Synthesis and Structure-Activity Relationship of Daphnetin Derivatives as Potent Antioxidant Agents” (Molecules : A Journal of Synthetic Chemistry and Natural …, 2018):

Legend:
[1] = ABTS+ radical scavenging assay; format: biochemical; details: 3 min at room temperature, absorbance 734 nm, triplicate
Description: (§1) The antioxidant activity is influenced by many factors, which cannot be fully described with a single antioxidant assay. Thus, in this study, antioxidant activities in vitro were evaluated using the free radical scavenging effect on 2,2′-diphenyl-1-picrylhydrazyl (DPPH), 2,2′-azinobis-(3-ethylbenzthiazoline-6-sulfonate) cation (ABTS^+). and the ferric reducing power (FRAP) assay, respectively, according to the literature with a slight modification.
The mixture was incubated in the dark at room temperature for 15–16 h before use. […] Each sample solution (0.1 mL) was added to 3.9 mL ABTS^+ solution, and the absorbance was measured at room temperature after 3 min. The Trolox standard solution (concentration range: 0–0.4 mmol/L) in ethanol was analyzed under the same conditions as those used for the calibration. […]

[2] = DPPH radical scavenging assay; format: biochemical; details: for EC50: DPPH radical scavenging, 30 min at room temperature, absorbance 517 nm, triplicate; for DPPH antioxidant activity compared with DAP 1, result in words: DPPH assay
Description: as §1
Each sample in an ethanol solution (0.1 mL) was added to 3.9 mL DPPH ethanol solution (0.1 mmol/L). The solution was vortexed for 10 s and incubated at room temperature for 30 min. […] The Trolox standard solution (concentration range: 0–0.4 mmol/L) in ethanol was analyzed under the same conditions as those used for calibration. […]

[3] = Ferric reducing power (FRAP) assay; format: biochemical; details: for reducing antioxidant power, fold higher than that of the standard antioxidant Trolox: relative to Trolox; for reducing antioxidant power (FRAP), result in words: compared with daphnetin or the parent compound
Description: as §1
The FRAP (ferric reducing antioxidant power) reagent was prepared with acetate buffer (300 mmol/L, pH 3.6), 2,4,6-tripyridyl-s-triazine (TPTZ) (10 mmol/L in HCl, 40 mmol/L) and FeCl3 (20 mmol/L). The proportions were 10:1:1 (v:v:v), respectively. Each sample solution was added to the FRAP reagent (1:30, v:v) and incubated at 37 °C for 5 min. The absorbance was determined at 593 nm using a spectrophotometer (Hitachi U-2800 Spectrophotometer, Tokyo, Japan). The Trolox standard solution (concentration range: 0–0.4 mmol/L) in ethanol was analyzed under the same conditions as those used for the calibration. The values of the reducing power were determined using a calibration curve of Trolox and expressed as the Trolox equivalent ([…], mmolTrolox/mmol sample).

[4] = tested on: mononuclear cells of umbilical blood; set-up: method as in PMID 15113635; details: cited from earlier work
[5] = Metabolic stability assay in vitro (UGT and COMT incubation system, S9 fraction); format: in vitro ADME, human; details: for half-life: UGT and COMT incubation system, pooled human S9, 2 mM UDPGA and 0.2 mM SAM, 37 °C, pH 7.4, read-out: metabolic elimination t1/2
Excerpt: The simultaneous improvement of utility as a drug and pharmacological activity is still a challenge for the structural optimization of lead compounds. From the view of the chemical structure, the catechol group is not only the pharmacophore of the coumarins but also the susceptible group for the attack of phase II metabolic enzymes. As phenolic hydroxyls, catechol coumarins primarily undergo conjugative reactions mediated by phase II metabolizing enzymes, including uridine-5-diphosphate glucuronosyl transferase (UGT) and catechol-O-methyltransferase (COMT). […] In summary, 4-carbethoxyl DAP 9 holds strong potential to be developed as an antioxidant agent with excellent antioxidant activity and good pharmacokinetic properties.
Metabolic stability assay in vitro
To determine the effects of a combination of glucuronidation and methylation, daphnetin and compound 9 were
incubated with S9 fraction in the presence of two cofactors (2 mM UDPGA and 0.2 mM SAM). The incubation mixture
contained pooled human S9 fraction (0.02 mg mL-1 protein), 5 mM MgCl2, 2 mM UDPGA, 0.2 mM SAM and 5 mM
daphnetin derivatives (dissolved in DMSO, final concentration 1%) in 200 mL of 50 mM Tris buffer (pH 7.4), as
described in the reported manuscript. Controls were incubated in the absence of UDPGA and SAM. After incubation at
37 °C for 0 to 6 0 min, the reactions were terminated by adding […] of cold acetonitrile. The samples were
centrifuged at 20 000 g for 20 min. The supernatants (200 mL) were subjected to assay for the time - dependent
esculetins depletion using HPLC.
Daphnetin and compound 9 were analyzed by a ultra - fast l iquid chromatography spectrometry system (Shimadzu,
Kyoto, Japan), equipped with two LC - 20AD pumps, a DGU - 20A3 vacuum degasser, a SIL - 20ACHT auto - sampler, a
CTO - 20AC column oven, an SPD - M 20A diode - array detector (DAD), a CBM - 20A communicati ons bus module, a […]
the equation: t1/2 = ln2/-k, where k represents the terminal elimination rate constant and is calculated as the negative […]

[6] = tested on: human single cell DNA; set-up: method as in PMID 12561251; details: cited from earlier work

Compound: O=c1ccc2ccc(O)c(O)c2o1 [Compound 1, 7,8-dihydroxycoumarin, reference compound]
- EC50 [1]: 159 ± 4.63 µM
- EC50 [2]: 46.2 ± 1.45 µM
- reducing antioxidant power, fold higher than that of the standard antioxidant Trolox [3]: 2.5 fold
- protection of mononuclear cells of umbilical blood from oxidative attack, compared with resveratrol [4]: stronger activities in protecting mononuclear cells of umbilical blood from oxidative attack than resveratrol
- half-life [5]: 20.3 min

Compound: Cc1cc(=O)oc2c(O)c(O)ccc12 [Compound 2, 7,8-Dihydroxy-4-methyl-2H-chromen-2-one]
- EC50 [1]: 224.5 ± 1.94 µM
- EC50 [2]: 85.6 ± 2.13 µM
- reducing antioxidant power (FRAP), result in words [3]: decreased activities of daphnetin but were still superior to Trolox
- protection of mononuclear cells of umbilical blood from oxidative attack, compared with resveratrol [4]: stronger activities in protecting mononuclear cells of umbilical blood from oxidative attack than resveratrol
- protection of human single cell DNA from oxidative attack, compared with curcumin and resveratrol [6]: more effective in protection of human single cell DNA from oxidative attack than curcumin and resveratrol

Compound: O=c1cc(-c2ccccc2)c2ccc(O)c(O)c2o1 [Compound 3, 7,8-Dihydroxy-4-phenyl-2H-chromen-2-one]
- EC50 [1]: 198 ± 28.2 µM
- DPPH antioxidant activity compared with DAP 1, result in words [2]: lower than that of DAP 1
- EC50 [2]: 55.6 ± 0.78 µM
- reducing antioxidant power (FRAP), result in words [3]: decreased activities of daphnetin but were still superior to Trolox

Compound: CC(C)(C)c1cc(=O)oc2c(O)c(O)ccc12 [Compound 4, 7,8-Dihydroxy-4-tert-butyl-2H-chromen-2-one]
- EC50 [1]: 234.7 ± 2.03 µM
- EC50 [2]: 65.5 ± 2.84 µM
- reducing antioxidant power (FRAP), result in words [3]: decreased activities of daphnetin but were still superior to Trolox

Compound: O=c1cc(C(F)(F)F)c2ccc(O)c(O)c2o1 [Compound 5, 7,8-Dihydroxy-4-trifluoromethyl-2H-chromen-2-one]
- EC50 [1]: 75.2 ± 1.58 µM
- EC50 [2]: 45.7 ± 1.26 µM
- reducing antioxidant power (FRAP), result in words [3]: three-fold increase in reducing antioxidant power

Compound: [N-]=[N+]=NCc1cc(=O)oc2c(O)c(O)ccc12 [Compound 8, 7,8-Dihydroxy-4-azidemethyl-2H-chromen-2-one]
- EC50 [1]: 238 ± 4.47 µM
- EC50 [2]: 62.2 ± 3.73 µM
- reducing antioxidant power (FRAP), result in words [3]: markedly decreased antioxidant activity

Compound: O=C(O)Cc1cc(=O)oc2c(O)c(O)ccc12 [Compound 9, 2-(7,8-Dihydroxy-2-oxo-2H-chromen-4-yl)acetic acid]
- EC50 ([1]; listed as 4-CH2COOH DAP (9)): 72.3 ± 2.7 µM
- EC50 [2]: 31.4 ± 0.68 µM
- reducing antioxidant power (FRAP), result in words [3]: three-fold increase in reducing antioxidant power
- half-life [5]: 96.5 min
- t1/2 of compound 9 relative to that of compound 1 ([5]; UGT and COMT incubation systems in vitro): five-fold longer

Compound: COc1cc2ccc(=O)oc2c(O)c1O [Compound 11, Fraxetin, reference compound]
- EC50 [1]: 173 ± 4.83 µM
- EC50 [2]: 45.6 ± 1.48 µM

Compound: CC(=O)Oc1ccc2ccc(=O)oc2c1OC(C)=O [Compound 12, 2-oxo-2H-Chromene-7,8-diyl diacetate]
- EC50 [1]: 4560 ± 50.1 µM
- EC50 [2]: 698 ± 5.22 µM

Compound: O=c1oc2c(O)c(O)ccc2cc1-c1ccccc1 [Compound 13]
- EC50 [1]: 108 ± 1.42 µM
- DPPH antioxidant activity compared with DAP 1, result in words [2]: more effective
- EC50 [2]: 43.7 ± 2.08 µM

Compound: N#Cc1cc2ccc(O)c(O)c2oc1=O [Compound 14]
- EC50 [1]: 95.8 ± 4.18 µM
- EC50 [2]: 47 ± 2.05 µM
- reducing antioxidant power, fold higher than that of the standard antioxidant Trolox [3]: 3 fold

Compound: CC(=O)c1cc2ccc(O)c(O)c2oc1=O [Compound 15]
- EC50 [1]: 80.52 ± 0.61 µM
- EC50 [2]: 50.6 ± 0.61 µM
- reducing antioxidant power, fold higher than that of the standard antioxidant Trolox [3]: 3 fold

Compound: O=C(O)c1cc2ccc(O)c(O)c2oc1=O [Compound 16]
- EC50 [1]: 146 ± 5.77 µM
- EC50 [2]: 37.7 ± 1.16 µM
- reducing antioxidant power (FRAP), result in words [3]: little effect on its antioxidant activity

Compound: CCOC(=O)c1cc2ccc(O)c(O)c2oc1=O [Compound 17]
- EC50 [1]: 138.9 ± 0.14 µM
- EC50 [2]: 44 ± 0.89 µM
- reducing antioxidant power (FRAP), result in words [3]: this situation did not change

Compound: C#CCNC(=O)c1cc2ccc(O)c(O)c2oc1=O [Compound 18]
- EC50 [1]: 91.2 ± 2.29 µM
- EC50 [2]: 55.6 ± 1.48 µM
- reducing antioxidant power (FRAP), result in words [3]: this situation did not change

Compound: O=c1oc2c(O)c(O)ccc2cc1-c1nc2ccccc2s1 [Compound 19]
- EC50 [1]: 86.6 ± 3.17 µM
- EC50 [2]: 71.3 ± 2.4 µM
- reducing antioxidant power (FRAP), result in words [3]: slightly reduced antioxidant activity

Compound: O=C(O)c1c(-c2nc3ccccc3s2)c(=O)oc2c(O)c(O)ccc12 [Compound 21, 3-(Benzo[d]thiazol-2-yl)-7,8-dihydroxy-2-oxo-2H-chromene-4-carboxylic acid]
- EC50 [1]: 108 ± 6.35 µM
- EC50 [2]: 130 ± 3.54 µM
- reducing antioxidant power (FRAP), result in words [3]: significant decrease in antioxidant activity

Compound: NC(=O)c1c(-c2nc3ccccc3s2)c(=O)oc2c(O)c(O)ccc12 [Compound 22, 3-(benzo[d]thiazol-2-yl)-7,8-dihydroxy-2-oxo-2H-chromene-4-carboxamide]
- EC50 [1]: 122 ± 4.41 µM
- EC50 [2]: 66.8 ± 1.38 µM
- reducing antioxidant power (FRAP), result in words [3]: lower antioxidant activity compared with that of compound 19

Compound: O=c1oc2c(O)c(O)ccc2c(-c2nnn[nH]2)c1-c1nc2ccccc2s1 [Compound 23, 3-(Benzo[d]thiazol-2-yl)-7,8-dihydroxy-4-(1H-tetrazol-5-yl)-2H-chromen-2-one]
- EC50 [1]: 121.7 ± 0.22 µM
- EC50 [2]: 168 ± 11.6 µM
- reducing antioxidant power (FRAP), result in words [3]: lower antioxidant activity compared with that of compound 19

Compound: Cc1c(C(F)(F)F)c2ccc(O)c(O)c2oc1=O [Compound 24, 7,8-Dihydroxy-3-methyl-4-(trifluoromethyl)-2H-chromen-2-one]
- EC50 [1]: 107 ± 6.23 µM
- EC50 [2]: 53.8 ± 2.25 µM

Compound: Cc1c(C)c2c(c(C)c1O)CCC(C)(C(=O)O)O2 (stereo not drawn) [Trolox, 6-hydroxy-2,5,7,8-tetramethylchroman-2-carboxylic acid, reference compound]
- EC50 [1]: 241 ± 2.52 µM
- EC50 [2]: 53.2 ± 2.02 µM

Compound: Methyl 2-(7,8-dihydroxy-2-oxo-2H-chromen-4-yl)acetic acid [Compound 10]
- EC50 [1]: 222.7 ± 1.84 µM
- EC50 [2]: 50.2 ± 1.12 µM
- reducing antioxidant power (FRAP), result in words [3]: significant decrease in antioxidant activity
